# Source: US10934309B2, “Tricyclic quinone derivative” (Boston Biomedical, Inc., priority 2014, dated 2021)
# Experiments:
# Format in all cases: cell-based, human
# [1] = test system: cancer cells; experiment: Proliferation inhibition test of cancer cells, overall statement on Table 1; conditions: summary of Table 1
# Description: HCT-116 cells (derived from human colon adenocarcinoma), HT-29 cells (derived from human colon cancer), and FaDu cells (derived from human hypopharynx cancer) were obtained from American Type Culture Collection (ATCC). HCT-116 cells and HT-29 cells were cultured using McCoy's 5a medium containing 10% fetal bovine serum (FBS) and 1% penicillin/streptomycin, and FaDu cells were cultured using MEM medium containing 10% FBS, 1% non-essential amino acid, 1% sodium pyruvate, and 1% penicillin/streptomycin, respectively, at 37° C. in the presence of 5% CO2. After cells were seeded at 300-600 cells/well onto black μClear-plate 384 well (Greiner bio-one Cat. No. 781091), a test substance was added such that the final concentration of DMSO is 0.1%, and cultured for 4 days. The number of living cells was then counted using Cell Titer-Glo (Registered trademark) Luminescent Cell Viability Assay (Promega) to calculate a concentration for 50% inhibition of cell proliferation of respective test substances (Bulk IC50 value; μM).
# [2] = test system: HT-29 cells; experiment: Inhibition assay of cancer cell sphere-forming ability (Test Example 2), HT-29; conditions: Homo sapiens, HT-29, 96 h, HT-29 cells, Ultra-Low Attachment plate, serum-free DMEM/F12 with B27, EGF, bFGF, insulin, 4 days, Cell Titer-Glo; read-out: IC50 (μM) HT; concentration for 50% inhibition of cell proliferation (Sphere IC50 value)
# How it was run: (§1)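 Human tumour lines (colon HCT-116, HT-29; hypopharynx FaDu) seeded on ultra-low-attachment plates to form spheres. Compound added at 0.1% final DMSO, cultured 4 days.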
# [3] = test system: FaDu cells; experiment: Inhibition assay of cancer cell sphere-forming ability (Test Example 2), FaDu; conditions: Homo sapiens, FaDu, 96 h, FaDu cells, Ultra-Low Attachment plate, serum-free DMEM/F12 with B27, EGF, bFGF, insulin, 4 days, Cell Titer-Glo; read-out: IC50 (μM) FaDu; concentration for 50% inhibition of cell proliferation (Sphere IC50 value)
# How it was run: as §1
# [4] = test system: HCT-116 cells; experiment: Inhibition assay of cancer cell sphere-forming ability (Test Example 2), HCT-116; conditions: Homo sapiens, HCT-116, 96 h, HCT-116 cells, Ultra-Low Attachment plate, serum-free DMEM/F12 with B27, EGF, bFGF, insulin, 4 days, Cell Titer-Glo; read-out: IC50 (μM) HCT; concentration for 50% inhibition of cell proliferation (Sphere IC50 value)
# How it was run: as §1
# [5] = test system: HT-29 cells; experiment: Proliferation inhibition assay of cancer cells (Test Example 1), HT-29; conditions: Homo sapiens, HT-29, 96 h, HT-29 cells, cultured for 4 days, Cell Titer-Glo; read-out: IC50 (μM) HT; concentration for 50% inhibition of cell proliferation (Bulk IC50 value)
# How it was run: (§2)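 Human HCT-116 and HT-29 colon and FaDu hypopharyngeal cancer lines seeded at 300-600 cells/well in 384-well format, then given test substance at 0.1% final DMSO. Growth measured after 4 days of culture.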
# [6] = test system: FaDu cells; experiment: Proliferation inhibition assay of cancer cells (Test Example 1), FaDu; conditions: Homo sapiens, FaDu, 96 h, FaDu cells, cultured for 4 days, Cell Titer-Glo; read-out: IC50 (μM) FaDu; concentration for 50% inhibition of cell proliferation (Bulk IC50 value)
# How it was run: as §2
# [7] = test system: HCT-116 cells; experiment: Proliferation inhibition assay of cancer cells (Test Example 1), HCT-116; conditions: Homo sapiens, HCT-116, 96 h, HCT-116 cells, cultured for 4 days, Cell Titer-Glo; read-out: IC50 (μM) HCT; concentration for 50% inhibition of cell proliferation (Bulk IC50 value)
# How it was run: as §2
# [8] = test system: cancer cells; experiment: Inhibition test of cancer cell sphere-forming ability, overall statement on Table 2; conditions: summary of Table 2
# Description: HCT-116 cells (derived from human colon adenocarcinoma), HT-29 cells (derived from human colon cancer), FaDu cells (derived from human hypopharynx cancer) were obtained from American Type Culture Collection (ATCC). HCT-116 cells and HT-29 cells were cultured using McCoy's 5a medium containing 10% fetal bovine serum (FBS) and 1% penicillin/streptomycin, and FaDu cells were cultured using MEM medium containing 10% FBS, 1% non-essential amino acid, 1% sodium pyruvate, and 1% penicillin/streptomycin, respectively, at 37° C. in the presence of 5% CO2. HCT-116 cells, HT-29 cells, and FaDu cells were seeded onto 384 Well Black Clear Bottom Ultra-Low Attachment Microplate (Corning Cat. No. 3827) using DMEM/F12 medium containing 2% B27 supplement (GIBCO), 20 ng/mL epidermal growth factor (EGF) (peprotech), 10 ng/mL basic fibroblast growth factor (bFGF) (peprotech), 5 μg/mL insulin (Sigma), and 1% penicillin/streptomycin to be 350-800 cells/well. A test substance was added so that the final concentration of DMSO is 0.1%, and then cultured for 4 days. The number of living cells was then counted using Cell Titer-Glo (registered trademark) Luminescent Cell Viability Assay (Promega) to calculate the concentration for 50% inhibition of cell proliferation of respective test substances (Sphere IC50 value; μM).
IC50 [2],IC50 [3],IC50 [4],IC50 [5],IC50 [6],IC50 [7],Compound,effect on the inhibition of the proliferation of cancer cells (in words) [1],effect to inhibit cancer cell sphere-forming ability (in words) [8]
0.05 µM,< 0.01 µM,0.05 µM,0.32 µM,< 0.01 µM,0.04 µM,"N#Cc1cc2c(s1)C(=O)c1ccncc1C2=O [Example 29, 4,9-dioxo-4,9-dihydrothieno[2,3-g]isoquinoline-2-carbonitrile]",particularly strong effect,particularly strong effect
0.24 µM,0.04 µM,0.06 µM,0.54 µM,0.05 µM,0.05 µM,"O=C1c2cnccc2C(=O)c2oc(C(F)F)cc21 [Example 63, 2-(difluoromethyl)furo[2,3-g]isoquinoline-4,9-dione]",particularly strong effect,particularly strong effect
0.06 µM,< 0.01 µM,0.04 µM,0.08 µM,< 0.01 µM,0.04 µM,"CC(O)c1cc2c(o1)C(=O)c1cnccc1C2=O (stereo not drawn) [Example 49, 2-(1-hydroxyethyl)furo[3,2-g]isoquinoline-4,9-dione]",particularly strong effect,particularly strong effect
